Like-named read-outs stand apart in the source and are kept apart here.
Target: recombinant eIF4E (Homo sapiens (Human), UniProt P06730)
Test: Fluorescence polarization competition assay for eIF4E binding potency
Summary of the method: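 IC50 values reflect 50% displacement of 20 nM EDA-m7GDP-ATTO-550 from 75 nM eIF4E, measured by fluorescence polarization after 30 min at room temperature. Buffer: 20 mM Tris pH 7.5, 100 mM NaCl, 1 mM DTT, 0.02% Tween-20; 1% DMSO.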

[1] = fluorescence polarization competition, 75 nM recombinant eIF4E, 20 nM EDA-m7GDP-ATTO-550, IC50 class, read-out: elF4E FP
[2] = inhibition of eIF4E/EDA-m7GDP-ATTO-550 binding by 50%, Table 4B calculated values, read-out: IC50
[3] = inhibition of eIF4E/EDA-m7GDP-ATTO-550 binding, calculated IC50 values, Table 4B, read-out: IC50

recombinant eIF4E, sequence (P06730 whole entry): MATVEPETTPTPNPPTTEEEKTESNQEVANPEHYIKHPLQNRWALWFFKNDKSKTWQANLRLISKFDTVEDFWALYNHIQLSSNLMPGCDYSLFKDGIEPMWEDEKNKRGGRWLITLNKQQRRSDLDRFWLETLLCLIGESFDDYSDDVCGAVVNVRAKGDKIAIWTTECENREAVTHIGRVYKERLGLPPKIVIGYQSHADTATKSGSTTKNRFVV

| Structure (SMILES) | IC50 [1] [nM] | IC50 [2] [nM] | IC50 [3] [nM] |
| --- | --- | --- | --- |
| N#Cc1ccc2ncn(CCOc3ccc(Cl)cc3-c3cccc(C(=O)O)c3)c(=O)c2c1 [compound 74] | 50 to 1000 | 423 |  |
| Cc1cc(-c2cc(Cl)ccc2OCCn2c(C)nc3cc(C(F)(F)F)c(CN4C[C@@H](C)O[C@@H](C)C4)c(C#N)c3c2=O)c2scc(C(=O)O)c2n1 [compound 642] | < 50 | 3.63 |  |
| Cc1nc2cnc(N3CCN(CC(F)F)CC3)c(C#N)c2c(=O)n1CC#Cc1ccc(Cl)cc1-c1ccnc2c(C(=O)O)csc12 [compound 1356] |  |  | 23.2 |
| Cc1cc(-c2cc(Cl)ccc2OCCn2c(C)nc3cc(C(F)(F)F)c(CC4CN(C)C4)c(C#N)c3c2=O)c2scc(C(=O)O)c2n1 [compound 425] | < 50 | 11.2 |  |
| Cc1cc(-c2cc(Cl)ccc2OCCn2c(C)nc3cc(Cl)c(N4CC5(CCC5)C4)c(C#N)c3c2=O)c2scc(C(=O)O)c2n1 [compound 1950] |  |  | 41.7 |
| Cc1cc(-c2cc(Cl)ccc2OCCn2c(C)nc3cc(C(F)(F)F)c(C4CCN(C)CC4)cc3c2=O)c2sc(C)c(C(=O)O)c2n1 [compound 1971] |  |  | 51.9 |
| Cc1nc2cnc(CCN(C)CC(F)F)c(C#N)c2c(=O)n1CCOc1ccc(Cl)cc1-c1ccnc2c(C(=O)O)csc12 [compound 1485] |  |  | 22.9 |
| Cc1cc(-c2nc3c(=O)n(CCOc4ccc(Cl)cc4-c4ccc(C#N)c5c(C(=O)O)csc45)c(C)nc3cc2C(F)(F)F)ccn1 [788Fa] | > 1000 | 1940 |  |
| Cc1nc2cnc(N3CCN(C4(CC(F)F)CC4)CC3)c(C#N)c2c(=O)n1CCOc1ccc(Cl)cc1-c1ccnc2c(C(=O)O)csc12 [compound 1643] |  |  | 18.8 |
| C#Cc1c(C(=O)O)cccc1-c1cc(Cl)ccc1OCCn1c(C(F)F)nc2cccc(C#N)c2c1=O [compound 165] | 50 to 1000 | 106 |  |
| Cc1nc2cnc(N3CCC4(CC3)CN(CC(F)F)C4)c(C#N)c2c(=O)n1CC#Cc1ccc(Cl)cc1-c1ccnc2c(C(=O)NS(=O)(=O)c3cccnc3)csc12 [compound 1409] |  |  | 10.8 |
| Cc1cc(-c2cc(Cl)ccc2OCCn2c(C)nc3cnc(C4CCCC(F)(F)C4)c(C#N)c3c2=O)c2scc(C(=O)O)c2n1 (centres unmarked) [compound 931] | < 50 | 13.7 |  |
| Cc1nc2cnc(N3CCC4(CC3)CN(CC(C)(F)F)C4)c(C#N)c2c(=O)n1CC#Cc1ccc(Cl)cc1-c1ccnc2c(C(=O)NS(=O)(=O)C3COC3)csc12 [compound 1411] |  |  | 17.5 |
| Cc1nc2cnc(N(C)C3CCN(CC4(F)COC4)CC3)c(C#N)c2c(=O)n1CC#Cc1ccc(Cl)cc1-c1ccnc2c(C(=O)O)csc12 [compound 1185] | < 50 | 17.6 |  |
| C=S(C)(=O)c1cc(C#N)c2c(=O)n(CCOc3ccc(Cl)cc3-c3ccnc4c(C(=O)O)csc34)c(C)c(F)c2c1 (centres unmarked) [compound 274] | < 50 | 18.8 |  |
| Cc1nc2cc(Cl)c(Cl)c(Cl)c2c(=O)n1CCOc1ccc(Cl)cc1-c1ccnc2c(C(=O)O)csc12 [compound 208] | 50 to 1000 | 103 |  |
| Cc1nc2c(F)cc(Cl)c(C#N)c2c(=O)n1CCOc1ccc(Cl)cc1-c1ccnc2c(C(=O)O)csc12 [compound 407] | < 50 | 33.1 |  |
| Cc1nc2cc(C#N)c(Cl)c(C#N)c2c(=O)n1CCOc1ccc(Cl)cc1-c1ccnc2c(C(=O)O)csc12 [compound 239] | < 50 | 28.6 |  |
| Cc1cc(-c2cc(Cl)ccc2OCCn2c(C)nc3ccc(N4CCN(C)CC4)c(C#N)c3c2=O)c2sc(C)c(C(=O)O)c2n1 [compound 812] | < 50 | 30 |  |
| CCN(c1ncc2nc(C)n(CC#Cc3ccc(Cl)cc3-c3ccnc4c(C(=O)NS(=O)(=O)c5ccncc5)csc34)c(=O)c2c1C#N)C1CCN(CC(F)(F)C(F)F)CC1 [compound 1708] |  |  | 16.2 |
| Cc1nc2cnc(N3CCCC4(CCN4CC(F)F)C3)c(C#N)c2c(=O)n1CCOc1ccc(Cl)cc1-c1ccnc2c(C(=O)O)csc12 (centres unmarked) [compound 1649] |  |  | 18.3 |
| CC(=O)Nc1cc2c(=O)n(CCOc3ccc(Cl)cc3-c3cccc(C(=O)O)c3)cnc2cn1 [compound 131] | 50 to 1000 | 600 |  |
| Cc1sc2c(-c3cc(Cl)ccc3OCCn3c(C)nc4cc(C(F)(F)F)cc(C#N)c4c3=O)ccnc2c1C(=O)O [compound 205] | 50 to 1000 | 101 |  |
| Cc1nc2cnc(C3=C(C(C)(C)C)CN(C)C3)c(C#N)c2c(=O)n1CCOc1ccc(Cl)cc1-c1ccnc2c(C(=O)O)csc12 [compound 1332] |  |  | 34.5 |
| Cc1nc2cnc(C#N)cc2c(=O)n1CC#Cc1ccc(Cl)cc1-c1ccnc2c(C(=O)O)csc12 [compound 625] | 50 to 1000 | 78 |  |
| Cc1cc(-c2cc(Cl)ccc2OCCn2c(C)nc3c(-c4ccccc4)ncc(C#N)c3c2=O)c2scc(C(=O)O)c2n1 [compound 1378] |  |  | 30 |

| Structure (SMILES) | IC50 [1] [nM] | IC50 [2] [nM] | IC50 [3] [nM] |
| --- | --- | --- | --- |
| COC(=O)c1csc2c(-c3cc(Cl)ccc3C#CCn3c(C)nc4cnc(N(C)C5CCN(CC(F)F)CC5)c(C#N)c4c3=O)ccnc12 [compound 1113] | 50 to 1000 | 140 |  |
| Cc1cc(-c2c(CF)cc3nc(C)n(CCOc4ccc(Cl)cc4-c4cc(C)nc5c(C(=O)O)csc45)c(=O)c3c2C#N)cc(C)n1 [compound 933] | 50 to 1000 | 122 |  |
| Cc1nc2cnc(Nc3ccccc3)cc2c(=O)n1CCOc1ccc(Cl)cc1-c1cccc(C(=O)O)c1 [compound 2004] |  |  | 639 |
| Cc1nc2cnc(N(C)C3CCN(C(C)(C)C(F)F)CC3)c(C#N)c2c(=O)n1CCOc1ccc(Cl)cc1-c1ccnc2c(C(=O)O)csc12 [compound 1431] |  |  | 19.8 |
| CC(=O)NS(=O)(=O)c1csc2c(-c3cc(Cl)ccc3OCCn3c(C)nc4c(F)cc(C(F)F)c(C#N)c4c3=O)cc(C)nc12 [compound 570] | < 50 | 5.57 |  |
| COc1cc(F)c(C(=O)O)cc1-c1cc(Cl)ccc1OCCn1cnc2cnc(C#N)cc2c1=O [compound 97] | > 1000 | > 3000 |  |
| Cc1cc(-c2cc(Cl)ccc2OCCn2c(C)nc3c(-c4ccccc4)nc(N4CCC4)c(C#N)c3c2=O)c2scc(C(=O)O)c2n1 [compound 1008] | < 50 | 15.3 |  |
| Cc1nc2cnc(N3CC4(C3)CN(C3(CF)CC3)C4)c(C#N)c2c(=O)n1CCOc1ccc(Cl)cc1-c1ccnc2c(C(=O)O)csc12 [compound 825] | < 50 | 14.3 |  |
| Cc1nc2c(F)c(C(F)(F)F)cc(C#N)c2c(=O)n1CCOc1ccc(Cl)cc1-c1ccnc2c(C(=O)O)csc12 [compound 294] | < 50 | 22.9 |  |
| Cc1nc2cnc(C3CCN(CC(F)(F)F)CC3)c(C#N)c2c(=O)n1CCOc1ccc(Cl)cc1-c1ccnc2c(C(=O)O)csc12 [compound 1117] | < 50 | 13.4 |  |
| Cc1cc(-c2cc(Cl)ccc2OCCn2c(C)nc3cc(C(F)(F)F)c(-c4cccnc4)nc3c2=O)c2scc(C(=O)O)c2n1 [compound 461] | < 50 | 6.15 |  |
| Cc1cc(-c2cc(Cl)ccc2OCCn2c(C)nc3cc(Cl)cc(C#N)c3c2=O)c2scc(C(=O)O)c2n1 [compound 693] | < 50 | 15 |  |
| CONC(=O)c1csc2c(-c3cc(Cl)ccc3OCCn3c(C)nc4cc(F)c(F)c(C#N)c4c3=O)ccnc12 [compound 308] | 50 to 1000 | 811 |  |
| Cc1nc2cc(OC(F)F)c(CN(C)C)c(C#N)c2c(=O)n1CCOc1ccc(Cl)cc1-c1ccnc2c(C(=O)O)csc12 [compound 531] | < 50 | 42.9 |  |
| Cc1ncc(F)cc1-c1c(CN(C)C)cc2nc(C)n(CCOc3ccc(Cl)cc3-c3ccnc4c(C(=O)O)c(C)sc34)c(=O)c2c1C#N [compound 1284] |  |  | > 1000 |
| N#Cc1cc2c(=O)n(CC#Cc3ccc(Cl)cc3-c3cccc(C(=O)O)c3)cnc2cn1 [compound 130] | > 1000 | 1420 |  |
| Cc1nc2cnc(N(C)C3C[C@H]4C[C@@H]3CN4CC(C)(F)F)c(C#N)c2c(=O)n1CCOc1ccc(Cl)cc1-c1ccnc2c(C(=O)O)csc12 (some centres unmarked) [compound 1688] |  |  | 12.7 |
| Cc1cc(-c2cc(Cl)ccc2OCCn2c(C)nc3cc(C(F)(F)F)c(CN(C)C)c(C#N)c3c2=O)c2scc(C(=O)O)c2n1 [compound 559] | < 50 | 8.69 |  |
| Cc1nc(N2CC3(CN(C)C3)C2)c(C#N)c2c(=O)n(CCOc3ccc(Cl)cc3-c3ccnc4c(C(=O)O)csc34)c(C)nc12 [compound 1265] |  |  | 11.5 |
| Cc1nc2cc(C(F)(F)F)cc(C#N)c2c(=O)n1CCOc1ccc(Cl)cc1-c1ccnc2c(-c3cc(O)no3)csc12 [compound 1375] |  |  | 83.9 |
| Cc1cc(-c2cc(Cl)ccc2OCCn2c(C)nc3cc(S(C)(=O)=O)c(N4CCN(C)CC4)c(C#N)c3c2=O)c2sc(C)c(C(=O)O)c2n1 [compound 1150] | < 50 | 4.6 |  |
| Cc1cc(O)c(-c2c(C(F)(F)F)cc3nc(C)n(CCOc4ccc(Cl)cc4-c4cc(C)nc5c(C(=O)O)csc45)c(=O)c3c2C#N)cn1 [compound 1389] |  |  | 1190 |
| Cc1nc2cc(C(F)(F)F)c(N3CCN(C)CC3)c(C#N)c2c(=O)n1CCOc1ccc(Cl)cc1-c1ccnc2c(-c3nn[nH]n3)csc12 [compound 1228] | < 50 |  | 1.11 |
| Cc1nc2cc(C(F)(F)F)c(CN3CCN(C)CC3)c(C#N)c2c(=O)n1CCOc1ccc(Cl)cc1-c1ccnc2c(C(=O)O)csc12 [compound 502] | < 50 | 38.4 |  |
| COC(=O)c1csc2c(-c3cc(Cl)ccc3C#CCn3c(C)nc4cnc(N(C)C5CCN(CC(F)(F)F)CC5)c(C#N)c4c3=O)ccnc12 [compound 1195] | < 50 |  | 13.1 |
| Cc1cc(-c2cc(Cl)ccc2OCCn2c(C)nc3cc(Cl)c(N4CCN(C(C)(C)C)CC4)c(C#N)c3c2=O)c2sc(C)c(C(=O)O)c2n1 [compound 1201] | < 50 |  | 22.8 |

Reference: patent US11286268B1, “EIF4E-inhibiting compounds and methods” (EFFECTOR THERAPEUTICS, INC., priority 2019, dated 2022)
